We go through 3 compounds from article PMC3907537, “Evaluation of the Endothelin Receptor Antagonists Ambrisentan, Bosentan, Macitentan, and Sitaxsentan as Hepatobiliary Transporter Inhibitors and Substrates in Sandwich-Cultured Human Hepatocytes” (PLoS ONE, 2014).

The test system of the assay is sandwich-cultured human hepatocytes. Nature of the assay: ERA effect on hepatobiliary disposition of d8-taurocholate (B-CLEAR sandwich culture). Type of assay: cell-based. The following applies: n = 3 donors; for d8-TCA cellular accumulation (% control) / d8-TCA total accumulation (% control): 2.5 µM d8-TCA, 10 min. How it is done: Sandwich-cultured human hepatocytes were obtained from Celsis/IVT (Baltimore, MD) or Life Technologies (Durham, NC). Donors were male (n = 3) and female (n = 1) between the ages of 31 and 62 years old. Hepatic uptake, biliary excretion and in vitro biliary clearance (Clb) were determined using the B-CLEAR® hepatocyte sandwich culture model as described by Liu et al., 1999 [34]. In this system, hepatocytes form functional bile canalicular networks while maintaining the expression and function of key uptake and efflux transporters. The canalicular system of bile pockets remains separate from the cellular culture media due to tight junctions between cells. The integrity of these tight junctions is maintained in the presence of calcium (Plus (+) buffer) while in the absence of calcium (Minus (−) buffer), these tight junctions open and release the contents of the canalicular network into the media.
A dose solution containing 2.5 µM d8-taurocholic acid (d8-TCA) was prepared in Plus (+) Buffer. Co-incubation solutions were prepared by combining d8-TCA dose solution and ERA or rifamycin-SV. Hepatocytes were washed and then conditioned for 10 min in warm Plus (+) or Minus (−) buffer with and without ERA or rifamycin-SV. Pre-incubation solutions were then removed and replaced with dose or co-incubation solutions and incubated for 10 min at 37°C. Following this 10 minute incubation, the dose or co-incubation solutions were removed and the cells were then washed three times with ice-cold Plus (+) buffer. The plates were then frozen at −80°C until processed for bioanalysis.
Study samples were stored in their original 24-well plates at −80°C until prepared for analysis. A volume of 500 µL of cell lysis solution (70∶30 methanol:water) containing 25 nM internal standard was added to each well and mixed for 20 min of mixing. The volume in each well was then transferred to a 96-well filter plate stacked on a Greiner deep well collection plate. The filter plate/collection plate was then centrifuged at 2000 rcf for 5 min. The filtrate was then evaporated to dryness under nitrogen. Samples were reconstituted in 200 µL of sample diluent (60∶40 methanol:10 mM ammonium acetate, native pH), sealed, and placed on a plate shaker for 15 min. These samples were then transferred to a Whatman 96-well 0.45 µm PVDF filter plate stacked on a Costar 3956 plate (HPLC injection plate), centrifuged at 2000 rcf for 2–3 min, and sealed with a silicon cap mat prior to LC-MS/MS analysis. d8-TCA standard spiking solutions were prepared in 50∶50 methanol:water. For a given lysate standard or control, 10 µL was added to each well of a previously frozen analytical plate. Standards representing 0.5–100 pmoles/well and QC’s at the LLQ and ULQ were prepared. These lysate standards and controls were then further processed as described above for unknown study samples. Prepared samples were filtered and analyzed by LC-MS/MS using a Shimadzu binary HPLC system (Columbia, MD) and tandem mass spectrometry using Thermo Electron TSQ® Quantum Discovery MAX™ (Waltham, MA) with an Ion Max ESI source operating in negative ion electrospray ionization mode. Results for unknowns and QCs were calculated using a standard curve based on an internal standard processing method.
Data calculations were performed using Microsoft Excel, 2010 with all values reported as mean ± standard deviation (SD). Statistical comparisons across ERA treatments were performed using analysis of variance (ANOVA) with Fisher’s PLSD post hoc analysis (Statview 5.0, SAS Institute, Cary NC); statistical significance was considered to be P<0.05. All mass values were normalized to mg protein by taking the average protein mass in the taurocholate plate determined using a BCA protein assay (Pierce Biotechnology, Rockford, IL). Cellular accumulation determined in Minus (−) buffer (Accumulation Minus (−) Buffer) represents the total mass of analyte inside the hepatocyte at the end of the incubation time period. […]

Each structure is given as a SMILES string.

Turning to `COC(c1ccccc1)(c1ccccc1)[C@H](Oc1nc(C)cc(C)n1)C(=O)O` [ambrisentan], the “d8-TCA cellular accumulation (% control)” value runs as follows: (33 µM ERA) 71%; (100 µM ERA) 52%.
Take `COc1ccccc1Oc1c(NS(=O)(=O)c2ccc(C(C)(C)C)cc2)nc(-c2ncccn2)nc1OCCO` [bosentan]: where the note is “11 µM ERA”, the “d8-TCA cellular accumulation (% control)” value worked out at 66.5±5.3%; the “d8-TCA total accumulation (% control)” value is 68.6±1.5%; the “d8-TCA in vitro biliary clearance (Clb), percent of control” value (“d8-TCA … (Clb), percent of control” below) was 69.2±0.1%. For the same compound, where the note is “33 µM ERA”, the “d8-TCA total accumulation (% control)” value was determined as 62.6±6.6% and the “d8-TCA … (Clb), percent of control” value was found to be 58.7±11.4%. For the same compound, under “100 µM ERA”, the “d8-TCA cellular accumulation (% control)” value is 44.5±3.6%; the “d8-TCA total accumulation (% control)” value turned out to be 31.7±5.9%; the “d8-TCA biliary efflux (BEI), percent of control” value turned out to be 85.2±13.9%; the “d8-TCA … (Clb), percent of control” value was determined as 27.0±9.3%.
As for `CCCNS(=O)(=O)Nc1ncnc(OCCOc2ncc(Br)cn2)c1-c1ccc(Br)cc1` [macitentan], for the setting “33 µM ERA”, the “d8-TCA cellular accumulation (% control)” value is listed as 42.1±4.5%; the “d8-TCA total accumulation (% control)” value was 23.6±0.5%; the “d8-TCA biliary efflux (BEI), percent of control” value was 72.9±8.0%; the “d8-TCA … (Clb), percent of control” value came to 17.2±2.3%. In addition, for the setting “100 µM ERA”, the “d8-TCA cellular accumulation (% control)” value is reported as 6.2±0.5%; the “d8-TCA total accumulation (% control)” value came to 4.8±0.2%; the “d8-TCA … (Clb), percent of control” value was 4.3±0.5%.
